Measured values as given in patent US6056958A, “Method of treatment of arterial and venous thromboembolic disorders” (Dupont Pharmaceuticals, priority 1997, dated 2000).
Non-standard residues stand in square brackets, D forms with d. Residues, ends and D or L forms follow the SMILES beside them. 3Amb = NCc1cccc(C(=O)O)c1

Legend:
αv /β3 receptor = target: T1, αv /β3 receptor (Homo sapiens, UniProt P05106+P06756); assay: αv/β3-Biotinylated Vitronectin Binding Assay; conditions: for IC50: inhibition of vitronectin binding to purified αv/β3; for Relative Binding Affinity for αv /β3 Relative to GPIIb/IIIa: ratio of IC50 values (GPIIb/IIIa over αv/β3)
T1 construct: The αv /β3 receptor was isolated from human placental extracts prepared using octylglucoside; from tissue
From the text: (§1) Compounds may be tested for their ability to block binding of vitronectin to the αv /β3 receptor and to block the binding of fibrinogen to GPIIb/IIIa receptor in the αv /β3 -Biotinylated Vitronectin Binding Assay and GPIIb/IIIa Receptor-Biotinylated Fibrinogen Binding Assay described below.
αv /β3 -Biotinylated Vitronectin Binding Assay
The αv /β3 receptor was isolated from human placental extracts prepared using octylglucoside. The extract was passed over an anti-αv /β3 monoclonal antibody (LM609) affinity column (prepared using LM609 and Affigel 10). The column was subsequently washed extensively at pH 7 and pH 4.5 followed by elution at pH 3. The resulting sample was concentrated by wheat germ agglutinin chromatography to provide a αv /β3 -containing sample which gave two bands on SDS-PAGE which were confirmed as αv /β3 by western blotting.
The affinity purified αv /β3 protein as described above was diluted at different levels and plated to 96 well plates (about 15 ng of αv /β3 protein per well). ELISA detection of αv /β3 -bound biotinylated vitronectin was performed as described below using fixed concentration of biotinylated vitronectin (approximately 80 nM/well). This αv /β3 receptor preparation contains the αv /β3 with no detectable levels of αv /β5 according to the gel and according to effects of blocking antibodies for the αv /β3 or αv /β5 in the ELISA.
A submaximal concentration of biotinylated vitronectin was selected based on concentration response curves with fixed αv /β3 receptor concentration and variable concentrations of biotinylated vitronectin.
The purified αv /β3 receptor is diluted with coating buffer (20 mM Tris HCl, 150 mM NaCl, 2.0 mM CaCl2, 1.0 mM MgCl2.6H2 O, 1.0 mM MnCl2.4H2 O) and coated (100 μL/well) on Costar (3590) high capacity 96-well plates overnight at 4° C. The coating solution is discarded and the plates washed once with blocking/binding buffer (B/B buffer: 50 mM Tris HCl, 100 mM NaCl, 2.0 mM CaCl2, 1.0 mM MgCl2.6H2 O, 1.0 mM MnCl2.4H2 O). The plate-immobilized αv /β3 receptor is then blocked (200 μl/well) with 3.5% BSA in B/B buffer for 2 hours at room temperature. After washing once with 1.0% BSA in B/B buffer, biotinylated vitronectin (100 μL) and either test compound (inhibitor) (11 μL) or B/B buffer w/1.0% BSA (11 μL) is added to each well. The plates are incubated 2 hours at room temperature. The plates are washed twice with B/B buffer and incubated 1 hour at room temperature with anti-biotin alkaline phosphatase (100 μL/well) in B/B buffer containing 1.0% BSA. The plates are washed twice with B/B buffer and alkaline phosphatase substrate (100 μL) is added. Color is developed at room temperature. Color development is stopped by addition of 2N NaOH (25 μL/well) and absorbance is read at 405 nm.
The inhibitory binding constant (Ki) of test agents 30 may be calculated under this assay system using Michaelis-Menten analysis. The IC50 is the concentration of test substance needed to block 50% of the vitronectin binding to the αv /β3 receptor. The IC50 for the inhibition of binding of vitronectin to the αv /β3 receptor was determined based on time averaged values for the inhibition of vitronectin binding. Thus, the inhibition of vitronectin binding for each concentration of test compound was measured every 30 seconds over a 2 hour period and the average value of inhibition of vitronectin binding over such 2 hour period was used for the determination of the IC50.

GPIIb/IIIa receptor = target: T2, GPIIb/IIIa receptor (Homo sapiens, UniProt P05106+P08514); assay: GPIIb/IIIa Receptor-Biotinylated Fibrinogen Binding Assay; conditions: inhibition of fibrinogen binding to purified GPIIb/IIIa
T2 construct: The GPIIb/IIIa receptor was purified from human platelets; from tissue; host or cells: human platelets (purified according to D'Souza et al., J. Biol. Chem. 1990, 265:3440-3446)
From the text: as §1
GPIIb/IIIa Receptor-Biotinylated Fibrinogen Binding Assay
The GPIIb/IIIa receptor was purified from human platelets according to D'Souza et al. (J. Biol. Chem., 1990, 265:3440-3446). The purified GPIIb/IIIa protein was coated on 96 well plates and the competition between test compound and biotinylated fibrinogen for binding to the plate-immobilized GPIIb/IIIa receptor was determined by ELISA as described below. Bound fibrinogen was detected using an avidin-alkaline phosphatase conjugate and paranitrophenol detection at […]. For IC50 determination, test agent was added at various concentrations to plates coated with purified GPIIb/IIIa protein which was followed by the addition of biotinylated fibrinogen. The inhibitory binding constant (Ki) of test agents were calculated under this assay system using standard Michaelis-Menten analysis. The IC50 is the concentration of test substance needed to block 50% of the fibrinogen binding to the GPIIb/IIIa receptor.
The following reagents may be used in the GPIIb/IIIa-fibrinogen binding ELISA:
purified GPIIb/IIIa (148.8 μg/mL);
biotinylated fibrinogen (~1 mg/mL or 3000 nM);
anti-biotin alkaline phosphatase conjugate (Sigma no. A7418);
flat-bottom, high binding, 96-well plates (Costar Cat. no. 3590);
phosphatase substrate (Sigma 104) (40 mg capsules);
bovine serum albumin (BSA) (Sigma no. A3294);
Alkaline Phosphatase buffer--0.1 M glycine-HCl, 1 mM MgCl2.6H2 O, 1 mM ZnCl2, pH 10.4;
Binding buffer--20 mM Tris-HCl, 150 mM NaCl, 1 mM CaCl2.2H2 O, 0.02% NaN3, pH 7.0;
Buffer A--50 mM Tris-HCl, 100 mM NaCl, 2 mM CaCl2.2H2 O, 0.02% NaN3, pH 7.4;
Buffer A+3.5% BSA (Blocking buffer);
Buffer A+0.1% BSA (Dilution buffer);
The following method steps are used in the GPIIb/IIIa-fibrinogen binding ELISA:
Coat plates with GPIIb/IIIa in Binding buffer (125 ng/100 μL/well) overnight at 4° C. (Leave first column uncoated for non-specific binding). Cover and freeze plates at -70° C. until used. Thaw plate 1 hour at room temperature or overnight at 4° C. Discard coating solution and wash once with 200 μL Binding buffer per well. Block plate 2 hours at room temperature on shaker with 200 μl Buffer A+3.5% BSA (Blocking buffer) per well. Discard Blocking buffer and wash once with 200 μL Buffer A+0.1% BSA (Dilution buffer) per well. Pipet 11 μL of test compound (10× the concentration to be tested in Dilution buffer) into duplicate wells. […] Read plate at 405 nm. Blank against non-specific binding (NSB) well. % Inhibition is calculated as 100-(Test Compound Abs/Total Abs)×100.

Platelet Aggregation = Platelet Aggregation Assay (in vitro, ADP-induced, platelet-rich plasma); type: cell-based, mongrel dogs or human
Method: Platelet Aggregation Assay
Venous blood was obtained from anesthetized mongrel dogs or from healthy human donors who were drug-free and aspirin-free for at least two weeks prior to blood collection. Blood was collected into citrated Vacutainer tubes. The blood was centrifuged for 15 minutes at 150× g (850 RPM in a Sorvall RT6000 Tabletop Centrifuge with H-1000 B rotor) at room temperature, and platelet-rich plasma (PRP) was removed. The remaining blood was centrifuged for 15 minutes at 1500× g ([…]) at room temperature, and platelet-poor plasma (PPP) was removed. Samples were assayed on an aggregometer (PAP-4 Platelet Aggregation Profiler), using PPP as the blank (100% transmittance). 200 μL of PRP (5×10^8 platelets/mL) were added to each micro test tube, and transmittance was set to 0%. 20 μl of ADP (10 μM) was added to each tube, and the aggregation profiles were plotted (% transmittance versus time). Test agent (20 μL) was added at different concentrations prior to the addition of the platelet agonist. Results are expressed as % inhibition of agonist-induced platelet aggregation.

[1] = tested on: canine thrombosis model (carotid artery); assay: Carotid artery reocclusion in canine thrombosis model with tPA; type: in vivo; conditions: dog carotid
Method: Compounds useful in the method of the present invention are useful for the prevention of reocclusion as an adjunct to fibrinolytic therapy, as shown in the animal model tests described below. The effect of compound A in combination with tPA on the incidence of carotid artery reocclusion in dogs was assessed using a protocol as described by Mousa et al., Circulation 1994, 89:3-12.

[2] = tPA 0.5 mg locally, 1.5 mg IV bolus, compound A 0.1 mg/kg IV bolus + 0.4 mg/kg IV infusion 3 hr, mean ± SD

T1 sequence (P06756 31-889 limits assumed): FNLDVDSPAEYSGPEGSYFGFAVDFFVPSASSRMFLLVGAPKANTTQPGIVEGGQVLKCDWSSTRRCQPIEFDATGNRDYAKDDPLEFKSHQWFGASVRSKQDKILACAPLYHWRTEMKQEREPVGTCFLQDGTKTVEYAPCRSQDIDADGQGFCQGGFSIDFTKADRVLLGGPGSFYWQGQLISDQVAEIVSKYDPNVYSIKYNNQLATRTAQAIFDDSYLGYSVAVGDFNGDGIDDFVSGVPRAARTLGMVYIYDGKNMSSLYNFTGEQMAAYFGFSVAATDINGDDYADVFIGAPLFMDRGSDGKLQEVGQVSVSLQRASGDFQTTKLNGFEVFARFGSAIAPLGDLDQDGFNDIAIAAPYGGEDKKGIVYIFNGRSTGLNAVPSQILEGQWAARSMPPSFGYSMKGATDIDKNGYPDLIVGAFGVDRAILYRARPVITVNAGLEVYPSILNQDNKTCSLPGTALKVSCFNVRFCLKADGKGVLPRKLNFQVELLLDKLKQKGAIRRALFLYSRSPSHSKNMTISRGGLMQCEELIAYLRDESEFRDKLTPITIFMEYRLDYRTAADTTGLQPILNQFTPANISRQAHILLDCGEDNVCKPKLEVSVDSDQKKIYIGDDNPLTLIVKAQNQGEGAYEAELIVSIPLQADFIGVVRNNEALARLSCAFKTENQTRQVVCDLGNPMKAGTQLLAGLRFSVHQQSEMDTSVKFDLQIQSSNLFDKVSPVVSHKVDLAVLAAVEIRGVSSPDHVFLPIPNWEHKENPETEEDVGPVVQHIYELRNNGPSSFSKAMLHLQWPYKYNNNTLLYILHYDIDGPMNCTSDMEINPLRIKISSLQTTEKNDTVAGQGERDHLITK
T1 sequence (P06756 891-1048 partner limits assumed): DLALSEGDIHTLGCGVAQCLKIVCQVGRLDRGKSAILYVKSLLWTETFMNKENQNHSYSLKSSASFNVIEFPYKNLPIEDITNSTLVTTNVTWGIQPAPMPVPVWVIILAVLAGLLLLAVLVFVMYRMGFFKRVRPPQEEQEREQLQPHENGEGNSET
T1 sequence (P05106 27-788): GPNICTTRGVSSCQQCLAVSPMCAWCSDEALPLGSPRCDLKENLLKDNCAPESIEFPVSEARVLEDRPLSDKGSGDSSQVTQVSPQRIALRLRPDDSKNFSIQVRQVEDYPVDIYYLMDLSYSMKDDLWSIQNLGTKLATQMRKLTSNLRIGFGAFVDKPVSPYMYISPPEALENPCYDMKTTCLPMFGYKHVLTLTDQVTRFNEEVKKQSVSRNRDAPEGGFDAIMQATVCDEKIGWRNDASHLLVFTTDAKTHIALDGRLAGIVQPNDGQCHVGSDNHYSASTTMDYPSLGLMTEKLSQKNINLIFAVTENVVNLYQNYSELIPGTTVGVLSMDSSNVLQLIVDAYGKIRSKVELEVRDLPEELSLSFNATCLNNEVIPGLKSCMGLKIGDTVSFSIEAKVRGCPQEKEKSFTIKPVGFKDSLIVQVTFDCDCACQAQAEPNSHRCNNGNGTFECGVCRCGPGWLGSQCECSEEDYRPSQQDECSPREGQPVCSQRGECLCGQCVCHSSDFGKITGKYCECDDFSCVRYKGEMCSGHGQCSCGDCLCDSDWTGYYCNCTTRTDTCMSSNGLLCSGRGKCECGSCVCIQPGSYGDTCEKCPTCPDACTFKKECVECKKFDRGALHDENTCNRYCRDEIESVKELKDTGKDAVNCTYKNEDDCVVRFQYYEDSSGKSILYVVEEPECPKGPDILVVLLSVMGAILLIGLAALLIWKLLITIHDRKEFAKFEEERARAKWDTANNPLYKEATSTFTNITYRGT
T2 sequence (P08514 32-887 limits assumed): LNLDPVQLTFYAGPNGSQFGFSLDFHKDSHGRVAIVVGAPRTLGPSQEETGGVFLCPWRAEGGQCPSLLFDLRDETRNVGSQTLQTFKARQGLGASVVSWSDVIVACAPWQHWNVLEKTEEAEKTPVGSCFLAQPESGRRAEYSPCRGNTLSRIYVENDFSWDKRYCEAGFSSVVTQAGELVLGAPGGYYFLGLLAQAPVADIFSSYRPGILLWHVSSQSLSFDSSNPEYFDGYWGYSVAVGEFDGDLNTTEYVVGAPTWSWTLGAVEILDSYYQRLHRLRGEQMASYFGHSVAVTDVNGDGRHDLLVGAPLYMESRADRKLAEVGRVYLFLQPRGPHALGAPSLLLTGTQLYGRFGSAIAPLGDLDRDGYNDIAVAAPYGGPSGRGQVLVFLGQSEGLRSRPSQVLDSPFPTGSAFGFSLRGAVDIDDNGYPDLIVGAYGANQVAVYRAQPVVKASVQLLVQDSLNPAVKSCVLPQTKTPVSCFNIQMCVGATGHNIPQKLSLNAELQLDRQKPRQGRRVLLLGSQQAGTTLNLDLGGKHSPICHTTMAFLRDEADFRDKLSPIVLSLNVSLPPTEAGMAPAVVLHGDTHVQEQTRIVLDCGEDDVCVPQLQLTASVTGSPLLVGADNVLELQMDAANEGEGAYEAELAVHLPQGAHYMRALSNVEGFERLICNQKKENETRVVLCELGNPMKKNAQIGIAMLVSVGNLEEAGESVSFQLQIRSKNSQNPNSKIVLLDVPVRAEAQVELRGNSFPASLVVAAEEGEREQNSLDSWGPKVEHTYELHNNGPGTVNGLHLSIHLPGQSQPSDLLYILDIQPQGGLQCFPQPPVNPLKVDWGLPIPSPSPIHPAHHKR
T2 sequence (P08514 891-1039 partner limits assumed): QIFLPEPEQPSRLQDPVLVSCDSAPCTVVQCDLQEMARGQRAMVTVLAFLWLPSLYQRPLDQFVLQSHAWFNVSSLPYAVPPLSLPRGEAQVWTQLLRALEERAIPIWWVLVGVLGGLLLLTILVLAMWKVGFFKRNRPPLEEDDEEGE
T2 sequence (P05106 27-788): as the sequence (P05106 27-788) above

| Compound | IC50 (αv /β3 receptor) [nM] | Relative Binding Affinity for αv /β3 Relative to GPIIb/IIIa (αv /β3 receptor) | IC50 (GPIIb/IIIa receptor) [nM] | IC50 (Platelet Aggregation) [nM] | Blood Flow, Basal ([1]; basal, tPA with or without compound A, mean ± SD) [cm/s] | Blood Flow, End ([1]; end, tPA with or without compound A) [cm/s] | Blood Flow, Reperfusion ([1]; reperfusion, tPA with or without compound A, mean ± SD) [cm/s] | Thrombus Weight (wet, mg) [1, 2] [mg] | Time to Occlusion [1, 2] [min] | Time to Reocclusion [1, 2] [min] | Time to Reperfusion [1, 2] [min] |
| --- | --- | --- | --- | --- | --- | --- | --- | --- | --- | --- | --- |
| N=C(N)NCCC[C@@H]1NC(=O)[C@H](CCCCN)NC(=O)c2cccc(c2)CNC(=O)[C@H](CC(=O)O)NC(=O)CNC1=O [Compound D, cyclo-(Lys-Arg-Gly-Asp-Mamb)] (cyclo(RGD[3Amb]K)) | 1.9 | 189 | 359 | 23000 | – | – | – | – | – | – | – |
| CC(C)C[C@@H]1NC(=O)c2cccc(c2)CNC(=O)[C@H](CC(=O)O)NC(=O)CNC(=O)[C@H](CCCNC(=N)N)NC1=O [Compound E, cyclo-(Leu-Arg-Gly-Asp-Mamb)] (cyclo(RGD[3Amb]L)) | 1.4 | 307 | 430 | 41000 | – | – | – | – | – | – | – |
| tPA: tissue plasminogen activator, thrombolytic agent | – | – | – | – | 30 ± 2.5 | 0 | 24.2 ± 8 | 36.2 ± 19.4 | 80 ± 25 | 23 ± 10 | 15 ± 10 |
